Data from PubChem BioAssay AID328 (DTP/NCI, 2004).
Several values for one entry are separate records, joined by “and”; a condition that tells them apart may be missing. Identical values can stand only once. Toxic doses and inconclusive results are not listed. Rule for the calls: active = survival T/C of 150% or more; inactive = T/C below 125% in these data.

System: BDF1 mice, P388 leukemia ip, median survival T/C
Assay: NCI In Vivo Anticancer Drug Screen. Data for tumor model P388 Leukemia (intraperitoneal) in B6D2F1 (BDF1) mice
Conditions: endpoint: median survival time, higher = longer survival
Outline: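 Survival ratio, drug arm over vehicle arm, in mice with a transplanted tumour.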

[1] = dose: 100.0 mg/kg/injection, schedule: Q01DX009 (ip), vehicle: saline with Tween-80
[2] = dose: 100.0 mg/kg/injection, schedule: Q04DX003 (ip), vehicle: saline with Tween-80
[3] = dose: 200.0 mg/kg/injection, schedule: Q01DX009 (ip), vehicle: saline with Tween-80
[4] = dose: 200.0 mg/kg/injection, schedule: Q04DX003 (ip), vehicle: saline with Tween-80
[5] = dose: 100.0 mg/kg/injection, schedule: Q04DX003 (ip), vehicle: saline
[6] = dose: 200.0 mg/kg/injection, schedule: Q04DX003 (ip), vehicle: saline
[7] = dose: 300.0 mg/kg/injection, schedule: Q04DX003 (ip), vehicle: saline
[8] = dose: 100.0 mg/kg/injection, schedule: Q01DX009 (ip), vehicle: Klucel (hydroxypropylcellulose) (HPC)

Measured: T/C

Cc1c(Cl)c(Cl)c(Cl)c(Cl)c1Cl
inactive: [1] 118 % of control | [2] 104 % of control | [3] 95 % of control | [4] 104 % of control | dose: 400.0 mg/kg/injection, schedule: Q01DX009 (ip), vehicle: saline with Tween-80 95 % of control | dose: 400.0 mg/kg/injection, schedule: Q04DX003 (ip), vehicle: saline with Tween-80 95 % of control

O=C(O)CCC(=O)/C=C1/Nc2ccccc2C1=O
inactive: [2] 110 % of control | [4] 120 % of control

S=C1NC2=C(CCC/C2=C\c2ccccc2)C(c2ccccc2)N1 (stereo not drawn)
inactive: dose: 50.0 mg/kg/injection, schedule: Q01DX009 (ip), vehicle: saline with Tween-80 91 % of control | [1] 96 % of control

CC(=O)/C=C/c1ccc2c(c1)OCO2
inactive: dose: 25.0 mg/kg/injection, schedule: Q04DX003 (ip), vehicle: saline 105 % of control | dose: 50.0 mg/kg/injection, schedule: Q04DX003 (ip), vehicle: saline 103 % of control | [5] 102 % of control and 114 % of control | [6] 100 % of control and 108 % of control and 122 % of control | [7] 100 % of control and 103 % of control | dose: 400.0 mg/kg/injection, schedule: Q04DX003 (ip), vehicle: saline 91 % of control and 94 % of control | dose: 500.0 mg/kg/injection, schedule: Q04DX003 (ip), vehicle: saline 106 % of control and 109 % of control

NC/C(=N\O)c1ccc(C(F)(F)F)cc1
inactive: dose: 50.0 mg/kg/injection, schedule: Q01DX001 (ip), vehicle: Klucel (hydroxypropylcellulose) (HPC) 105 % of control | dose: 100.0 mg/kg/injection, schedule: Q01DX001 (ip), vehicle: Klucel (hydroxypropylcellulose) (HPC) 114 % of control | dose: 200.0 mg/kg/injection, schedule: Q01DX001 (ip), vehicle: Klucel (hydroxypropylcellulose) (HPC) 105 % of control

COC(=O)C1(C(=O)OC)C2CC(C)=C(C)CC21 (stereo not drawn)
inactive: dose: 150.0 mg/kg/injection, schedule: Q04DX003 (ip), vehicle: saline 95 % of control | [7] 95 % of control

C=C(CC(=O)O)C(=O)O (tested in a mixture with another compound)
inactive: dose: 44.0 mg/kg/injection, schedule: Q01DX009 (ip), vehicle: saline 120 % of control

COC(=O)C1=C(C)NC2(C)SC1C(C)C2C(=O)OC (stereo not drawn)
inactive: [1] 107 % of control | [3] 98 % of control

CC(=O)Nc1cc(C)c(C)cc1[N+](=O)[O-]
inactive: [8] 95 % of control | dose: 100.0 mg/kg/injection, schedule: Q04DX003 (ip), vehicle: Klucel (hydroxypropylcellulose) (HPC) 104 % of control | dose: 200.0 mg/kg/injection, schedule: Q01DX009 (ip), vehicle: Klucel (hydroxypropylcellulose) (HPC) 109 % of control | dose: 200.0 mg/kg/injection, schedule: Q04DX003 (ip), vehicle: Klucel (hydroxypropylcellulose) (HPC) 90 % of control | dose: 400.0 mg/kg/injection, schedule: Q01DX009 (ip), vehicle: Klucel (hydroxypropylcellulose) (HPC) 95 % of control | dose: 400.0 mg/kg/injection, schedule: Q04DX003 (ip), vehicle: Klucel (hydroxypropylcellulose) (HPC) 86 % of control

CS(=O)(=O)OCCCOS(C)(=O)=O
inactive: dose: 12.5 mg/kg/injection, schedule: Q01DX009 (ip), vehicle: Klucel (hydroxypropylcellulose) (HPC) 109 % of control | dose: 25.0 mg/kg/injection, schedule: Q01DX009 (ip), vehicle: Klucel (hydroxypropylcellulose) (HPC) 109 % of control | dose: 50.0 mg/kg/injection, schedule: Q01DX009 (ip), vehicle: Klucel (hydroxypropylcellulose) (HPC) 119 % of control | [8] 95 % of control | [5] 109 % of control | [6] 118 % of control

COC(=O)[C@]1(C)CCC[C@]2(C)c3ccc(C(C)C)cc3CC[C@@H]12
inactive: dose: 0.5 mg/kg/injection, schedule: Q01DX009 (ip), vehicle: Klucel (hydroxypropylcellulose) (HPC) 100 % of control | dose: 0.5 mg/kg/injection, schedule: Q04DX003 (ip), vehicle: Klucel (hydroxypropylcellulose) (HPC) 100 % of control | dose: 1.0 mg/kg/injection, schedule: Q01DX009 (ip), vehicle: Klucel (hydroxypropylcellulose) (HPC) 103 % of control | dose: 1.0 mg/kg/injection, schedule: Q04DX003 (ip), vehicle: Klucel (hydroxypropylcellulose) (HPC) 100 % of control | dose: 2.0 mg/kg/injection, schedule: Q01DX009 (ip), vehicle: Klucel (hydroxypropylcellulose) (HPC) 92 % of control | dose: 2.0 mg/kg/injection, schedule: Q04DX003 (ip), vehicle: Klucel (hydroxypropylcellulose) (HPC) 104 % of control
